Assay results: paper PMC12664589 (Journal of Structural Biology: X, 2025)
Where two headings read alike, the source gives them in different places.

Target: CpNce103p (Candida parapsilosis, UniProt G8B6R8)
Experiment: biochemical
Type: biochemical

SMILES | Ki [µM] | Ki (pH 7.5, read-out: Ki) [µM]
NN=C(c1ccccc1)c1ccccc1 [Compound 7, Benzophenone hydrazone] | 302 | 
C#CCCS(N)(=O)=O [Compound 4, but-3-yne-1-sulfonamide] | 933 | 
NS(=O)(=O)C(F)(F)F [Compound 16, Trifluoromethanesulfonamide] | 2.2 | 
NS(=O)(=O)c1ccc([N+](=O)[O-])cc1 [Compound 13, 4-Nitrobenzenesulfonamide] | 188 | 
NCc1ccc(S(N)(=O)=O)cc1 [Compound 2, 4-(aminomethyl)benzenesulfonamide] | 3170 | 
[N-]=[N+]=NCC(=O)NCCc1ccc(S(N)(=O)=O)cc1 [Compound 10, 2-azido-N-(4-sulfamoylphenethyl)acetamide] | 1510 | 
NS(=O)(=O)c1ccccc1 [Compound 5, Benzenesulfonamide] | 922 | 
NS(N)(=O)=O [Compound 8, Sulfamide] |  | 1600
O=[N+]([O-])c1ccccc1S(=O)(=O)Cl [Compound 3, 2-Nitrobenzenesulfonyl chloride] | 869 | 
N[C@@H](Cc1c[nH]c2ccccc12)C(=O)O [Compound 15, L-Tryptophan] | 842 | 
Nc1ccc(S(N)(=O)=O)cc1 [Compound 9, Sulfanilamide] | 825 | 
NS(=O)(=O)c1cc(C(=O)O)c(NCc2ccccc2)cc1Cl [Compound 14, 2-(benzylamino)-4-chloro-5-sulfamoylbenzoic acid] | 377 | 
